Assay results reported in patent publication US5385918A, “Aminomethylene-peptides as immunosuppressants” (Miles Inc., priority 1993, dated 1995).
Where two headings read alike, the source gives them in different places. Blank lines part the entries; values can stand above or below the compound they belong to.

Experiments:
human T-cells = test: Suppression of Human T-Cell Proliferation Assay (PHA-stimulated, [3H]-thymidine incorporation); type: cell-based; conditions: for IC50: inhibition of [3H]-thymidine incorporation of PHA-stimulated purified human T-cells, 72 hours
Source text: Inhibition of mitogen-induced T-cell proliferation can be used to profile immunosuppressive activity of test compounds. In the description of the assay which follows, mitogen-induced T-cell proliferation was used to test the inhibitory potencies of select compounds of the present invention.
In an assay similar to that described by Bradley in Mishell et al. (Eds.), 1980, Selected Methods in Cellular Immunology, pp 156-161, W. H. Freeman & Co., San Fransisco, Calif., T-cells were stimulated by incubation with phytohemagglutinin (PHA) which binds to cell surface molecules, including the T-cell receptor. This stimulation results in proliferation which can be measured by incorporation of [^3 H]-thymidine into cellular DNA.
Fresh LeukoPaks were obtained from the New York Blood Center, New York, N.Y. The cells, including erythrocytes and leukocytes, were diluted with Hank's Balanced Salt Solution (HBSS) (GIBCO, Grand Island, N.Y.) and layered over Lymphoprep (Nycomed Pharma AS, Oslo, Norway) in sterile 50 ml conical centrifuge tubes. Lymphocytes were isolated at the Hank's/Nycomed interface after centrifugation at 2000×g, 4° C. for 15 min. The lymphocytes were washed with Minimal Essential Medium (GIBCO) containing 2% fetal bovine serum (FBS) (Sigma Chemical Co., St. Louis, Mo.), 1% HEPES buffer (GIBCO) and 1% Penicillin-Stretomycin solution (GIBCO).
T-cells were further purified essentially by sheep erythrocyte (SRBC) rosetting as described by Morimoto et al., 1983, J. Immunol. 130:157. The isolated lymphocytes were adjusted to 2×10^7 cells/ml and 5 ml aliquots of the cell suspension were incubated for 10 minutes at room temperature with 5 ml of a 5% SRBC (Cappel, Organon Technika Corp., West Chester, Pa.) suspension. The cells were gently pelleted by centrifugation at 300 rpm for 10 minutes, followed by a 1 hour incubation at room temperature to allow rosette formation. The cells were gently resuspended,layered over Lymphoprep and centrifuged for 30 minutes at 500×g. The pellet, containing rosetted T-cells and SRBC was treated with ice cold buffered ammonium chloride (GIBCO) to lyse the erythrocytes. T-cells were washed twice with HBSS.
Purified T-cells were resuspended at 2×10^6 cells/ml in complete culture medium composed of RPMI-1640 (Whittaker Bioproducts, Walkerville, Md.) with 10% FBS (Sigma), 2 mM L-glutamine (GIBCO), 1% Penicillin-Streptomycin (GIBCO) and 15 mM HEPES (GIBCO). In 96-well plates (Becton Dickinson, Lincoln Park, N.J.), 0.1 ml aliquots of T-cell suspension were mixed with 0.05 ml of 40 μg/ml PHA-M (Sigma). The compounds of this invention were dissolved in dimethylsulfoxide at 10 mM and various dilutions in complete medium were added in duplicate wells (0.05 ml/well). The plates were incubated at 37° C. in a humidified atmosphere of 5% carbon dioxide and 95% air for 72 hours.
Proliferation was assessed by measurement of [^3 H]-thymidine incorporation. During the last 6 hours of incubation, the cells were pulse labelled with 1 μCi/well of [^3 H]-thymidine (New England Nuclear, Boston, Mass.). The cells were harvested onto glass fiber paper using a plate harvester and the radioactivity incorporated into cellular DNA corresponding to individual wells was measured by standard liquid scintillation counting methods. The mean counts per minute (CPM) of replicate wells was calculated and linear regression analysis of mean CPM versus compound concentration was used to determine the concentration of compound which would inhibit [^3 H]-thymidine incorporation of T-cells by 50% (IC50).

NF-AT (FGL-5 cells) = test: NF-AT Inhibition Assay Directed β-Galactosidase Expression; type: cell-based
Method: Inhibition of NF-AT activity is measured using FGL-5 cells. FGL-5 is a cloned line of stably transfected Jurkat T-cells that contain a construct in which three tandem copies of the NF-AT DNA binding site direct transcription of the lacZ gene, encoding β-galactosidase (Fiering et al., 1990, Genes & Development 4:1823). When these cells are stimulated with phorbol esters which activate protein kinase C and calcium ionophore to raise the intracellular calcium concentration, transcriptionally active NF-AT is produced. In T-cells, this normally leads to the expression of IL-2, T-cell growth factor. However, in FGL-5 cells NF-AT activation leads to the production of β-galactosidase which can be detected using an appropriate substrate.
This assay was performed essentially as described (Bierer et al., 1990, Proc. Natl. Acad. Sci. 87:923 1). FGL-5 cells were maintained in medium consisting of RPMI-1640 with 10% FBS, 2 mM L-glutamine, 1% Penicillin-Streptomycin and 15 mM HEPES buffer. The assays were done with exponentially growing cells whose density was not greater than 0.5 million cells/ml. The cells were resuspended to 3 million cells/ml in medium and 0.1 ml was added to wells of a 96-well plate.
The compounds of the present invention were dissolved in either ethanol or dimethylsulfoxide at 10 mM and 0.05 ml/well of various dilutions in medium were added to cells in duplicate wells. Treatment controls consisted of duplicate wells to which 0.05 ml/well of either medium, ethanol or dimethylsulfoxide was added. The ethanol and dimethyl sulfoxide were at the same concentration as was used for the compounds. Cells were incubated with compounds at room temperature for 10-15 minutes. Phorbol dibutyrate (Sigma) and Ionomycin (Calbiochem) were dissolved at 50 μg/ml and 2 mM, respectively and stored at -70° C.
FGL-5 cells were stimulated by diluting these reagents with medium to 200 ng/ml and 8 μM, respectively and adding of 0.05 ml/well. For unstimulated cell controls, 0.05 ml/well of medium was added to duplicate wells. The plates were incubated overnight (16-18 hours) at 37° C. in a humidified atmosphere of 5% CO2 and air.
β-galactosidase activity was measured as the fluorescence generated by the cleavage of 4-methyl umbelliferyl-β-D-galactoside (Sigma) at the β-galactoside bond. After overnight incubation, the cells were centrifuged at 500×g for 3 minutes in the 96-well plates and washed 3 times with PBS. The cells were then resuspended in 0.18 ml/well of reaction medium containing 100 mM sodium phosphate buffer, pH 7.0, 10 mM potassium chloride, 1 mM magnesium sulfate, 0.1% Triton X-100 (Pierce, Rockford, Ill.), and 0.5 mM 4-methylumbelliferyl-β-D-galactoside.
The fluorescence at 460 nm using 3 55 nm excitation was measured at intervals over 1-2 hours (during which fluorescence increased linearly with time) with a LS50 Luminescence Spectrometer (Perkin Elmer).
The percent inhibition by each concentration of the compounds was calculated as: [formula]
The values of the concentration of compounds required for 50% inhibition (IC50) were determined by linear regression analysis of the percent inhibition at various compound concentrations.

[1] = stimulated FGL-5 cells, read-out: IC50 for NF-AT directed β-galactosidase expression
[2] = inhibition of β-galactosidase activity in FGL-5 cells stimulated with phorbol dibutyrate and ionomycin, read-out: IC50

Structure (SMILES): CC[C@H](C)[C@H](NC(=O)[C@@H]1CCCN1C[C@H](CC(C)C)NC(=O)[C@H](CC(N)=O)NC(=O)[C@H](Cc1ccccc1)NC(=O)OC(C)(C)C)C(=O)OCc1ccccc1 [Example 14, 1-[1-[2-(S)-[[1-[1-[(1,1-Dimethylethoxy)carbonyl]-L-phenylalanyl]-L-asparaginyl]amino]-4-methylpentyl]-L-proline]-L-isoleucine Phenylmethyl Ester]
inhibition of mitogen induced T-cell proliferation (human T-cells): inhibited mitogen induced T-cell proliferation | IC50 (human T-cells): < 6 µM | IC50 (NF-AT (FGL-5 cells); [1]): ≤ 10 µM

Structure (SMILES): CC[C@H](C)[C@H](NC(=O)[C@@H]1CCCN1C[C@@H](NC(=O)OC(C)(C)C)C(C)C)C(=O)NCc1ccccc1 [Example 17, 1-[1-[2-(S)-[[(1,1-dimethylethoxy)carbonyl]amino]-3-methylbutyl]-L-proline] -L-isoleucine Benzylamide]
inhibition of mitogen induced T-cell proliferation (human T-cells): inhibited mitogen induced T-cell proliferation | IC50 (human T-cells): 14 µM | IC50 (NF-AT (FGL-5 cells); [2]): 29 µM | IC50 (NF-AT (FGL-5 cells); [1]): ≤ 10 µM

Structure (SMILES): CC[C@H](C)[C@@H](CN1CCCC[C@H]1C(=O)N[C@H](C(=O)NCc1ccccc1)[C@@H](C)OCc1ccccc1)NC(=O)OC(C)(C)C [Example 19, 1-[1-[2-(S)-[[(1,1-Dimethylethoxy)carbonyl]amino]-3-(S)-methylpentyl]-L-homoproline]-L-threonene(O-Benzyl Ether)Benzylamide]
IC50 (human T-cells): 17 µM | IC50 (NF-AT (FGL-5 cells); [2]): 9 µM

Structure (SMILES): CC[C@H](C)[C@H](NC(=O)[C@@H]1CCCN1C[C@@H](NC(=O)OC(C)(C)C)[C@@H](C)CC)C(=O)NCc1ccccc1 [Example 6]
IC50 (human T-cells): 6 µM | IC50 (NF-AT (FGL-5 cells); [2]): 8 µM

Continued, in another order:

IC50 (NF-AT (FGL-5 cells); [2]): > 15 µM
Structure (SMILES): CCC(C)[C@@H](CN1CCC[C@H]1C(=O)N[C@H](C(=O)NCc1ccccc1)[C@@H](C)CC)NC(=O)[C@@H](N)CC1CCCCC1 (some centres unmarked) [Example 8]
IC50 (human T-cells): 5 µM

IC50 (NF-AT (FGL-5 cells); [2]): 1 µM
Structure (SMILES): CC[C@H](C)[C@H](NC(=O)[C@@H]1CCCCN1C[C@@H](NC(=O)OC(C)(C)C)[C@@H](C)CC)C(=O)NCc1ccccc1 [Example 3, 1-[1-[2-(S)-[[(1,1-Dimethylethoxy)carbonyl]amino]-3-(S)-methylpentyl]-L-homoproline]-L-isoleucine Benzylamide]
IC50 (human T-cells): 0.7 µM

IC50 (NF-AT (FGL-5 cells); [2]): > 15 µM
Structure (SMILES): CCC(C)[C@@H](CN1CCC[C@H]1C(=O)N[C@H](C(=O)NCc1ccccc1)[C@@H](C)CC)NC(=O)[C@H](CC1CCCCC1)NC(=O)OC(C)(C)C (stereo partly drawn) [Example 7, 1-[1-[2-(S)-[[2-(S)-[[(1,1-Dimethylethoxy)carbonyl]amino]-1-oxo-3-cyclohexylpropyl]amino]-3-methylpentyl]-L-proline]-L-isoleucine Benzylamide]
IC50 (human T-cells): 3 µM

IC50 (NF-AT (FGL-5 cells); [2]): 19 µM
Structure (SMILES): CC[C@H](C)[C@H](NC(=O)[C@@H]1CCCN1C[C@H](CC1CCCCC1)NC(=O)OC(C)(C)C)C(=O)NCc1ccccc1 [Example 16, 1-[1-[2-(S)-[[(1,1-dimethylethoxy)carbonyl]amino]-3-cyclohexylpropyl]-L-proline]-L-isoleucine Benzylamide]
IC50 (human T-cells): 6 µM

IC50 (NF-AT (FGL-5 cells); [2]): > 15 µM
Structure (SMILES): CC[C@H](C)[C@H](NC(=O)[C@@H]1CCCCN1C[C@H](CC(C)C)NC(=O)OC(C)(C)C)C(=O)NCc1ccccc1 [Example 18, 1-[1-[2-(S)-[[(1,1-Dimethylethoxy)carbonyl]amino]-4-methylpentyl]-L-homoproline]-L-isoleucine Benzylamide]
IC50 (human T-cells): 4 µM

IC50 (NF-AT (FGL-5 cells); [2]): 13 µM
Structure (SMILES): CC[C@H](C)[C@H](NC(=O)[C@@H]1CCCN1C[C@H](CC(C)C)NC(=O)OC(C)(C)C)C(=O)NCc1ccccc1 [Example 2, 1-[1-[2-(S)-[[(1,1-Dimethylethoxy)carbonyl]amino]-4-methylpentyl]-L-proline]-L-isoleucine Benzylamide]
IC50 (human T-cells): 7 µM
